Legend:
[1] = Stability against light (impurity content by HPLC after storage); assay type: physicochemical
Experimental: The respective crystals obtained in Example 1 and Comparative Example 2 (the crystal form A and the crystal form B) were stored for 1, 3 and 6 months under conditions of 25° C./1000 Lx (apparatus for light stability test; Nagano Science Co. Ltd) and 25° C./dark (control), and impurity contents were measured by HPLC method to investigate stability against exposure to light for the respective crystals. The conditions for HPLC method are shown below.
(Calculation Method of Impurity Content)
Individual impurity content (%)=(Peak area of individual impurity)/(total of all peak areas)×100
Peaks with impurity contents of 0.05% or greater were recorded as impurity peaks, and their total was recorded as the impurity content of the crystals. Impurity content (%)=Total of individual impurity contents (%)

[2] = Variable-temperature powder X-ray diffraction and DSC (change of crystal form on heating); assay type: physicochemical
Experimental: The measuring conditions were the same as for the powder X-ray diffraction pattern measurement described above, except for the measuring temperature.
DSC analysis was conducted under the following conditions, using approximately 3 mg each of the crystals obtained in Example 1 and Comparative Example 2 (the crystal form A and the crystal form B). The DSC patterns of the respective crystals are shown in FIG. 6 and FIG. 7 (magnification of 40-230° C.), and the endothermic peaks and exothermic peaks are shown in Table 2. • Measuring apparatus: DSC822^e by Mettler Toledo • Sample pan material: aluminum • Nitrogen gas flow (40 mL/min) • Start temperature: 25° C. • End temperature: 260° C.
Temperature elevating rate: 5° C./min

Compound `Cn1cc(-c2cnc(N)nc2-c2ccco2)ccc1=O` [Crystal form A, 5-[2-amino-4-(2-furyl)pyrimidin-5-yl]-1-methylpyridin-2(1H)-one] has an Impurity content ([1]; 25° C./1000Lx, storage period 1 month, listed as A) of 0.10%, an Impurity content ([1]; 25° C./1000Lx, storage period 3 months, listed as A) of 0.07% and an Impurity content ([1]; 25° C./1000Lx, storage period 6 months, listed as A) of 0.08%. The “Stability against exposure to light (comparison of crystal forms)” value ([1]; 25° C./1000 Lx, up to 6 months) was “more stable against exposure to light than the crystal form B”, the Impurity content ([1]; 25° C./dark (control), storage period 1 month, listed as A) was 0.14% and the Impurity content ([1]; 25° C./dark (control), storage period 3 months, listed as A) was 0.12%. The Impurity content ([1]; 25° C./dark (control), storage period 6 months, listed as A) was 0.12%, the Impurity content ([1]; Initial, before storage, HPLC, listed as A) was 0.06% and the “Change in crystal form by heating” value ([2]; sample temperature 30° C. to 260° C.) was “undergoes no change in crystal form by heating”.

For `Cn1cc(-c2cnc(N)nc2-c2ccco2)ccc1=O` [Crystal form B, 5-[2-amino-4-(2-furyl)pyrimidin-5-yl]-1-methylpyridin-2(1H)-one], the Impurity content ([1]; 25° C./1000Lx, storage period 1 month, listed as B) was 0.48%, the Impurity content ([1]; 25° C./1000Lx, storage period 3 months, listed as B) was 0.52% and the Impurity content ([1]; 25° C./1000Lx, storage period 6 months, listed as B) was 0.81%. It also gave an Impurity content ([1]; 25° C./dark (control), storage period 1 month, listed as B) of 0.28%, an Impurity content ([1]; 25° C./dark (control), storage period 3 months, listed as B) of 0.25% and an Impurity content ([1]; 25° C./dark (control), storage period 6 months, listed as B) of 0.23%. The Impurity content ([1]; Initial, before storage, HPLC, listed as B) was 0.34%, the “Temperature of transformation to another crystal form (B′)” value ([2]; heating 30° C. to 260° C.) was “about 90 °C” and the “Temperature of transformation to the crystal form A” value ([2]; heating 30° C. to 260° C.) was “about 170 °C”.

— patent US20060235225A1, “Crystals of 5-[2-amino-4-(2-furyl) pyrimidin-5-yl]-1-methylpyridin-2(1H)-one and processes for preparing the same” (Eisai Co., Ltd., priority 2005, published 2006)
